The source of these data is ChEMBL document CHEMBL4364302, “4-Aminoquinoline-based compounds as antileishmanial agents that inhibit the energy metabolism of Leishmania” (Eur J Med Chem, 2019).

For series [1], the system named is Leishmania infantum. Description: Antileishmanial activity against promastigote stage of Leishmania infantum MHOM/TN/80/IPT1 assessed as reduction in parasite viability measured after 72 hrs by MTT assay. The series is classed as functional, organism-based. As to conditions: MHOM/TN/80/IPT1, 72 h.
Series [2] has as its system Leishmania braziliensis. The series can be described thus: Antileishmanial activity against promastigote stage of Leishmania braziliensis MHOM/IT/2006/ISS2848 assessed as reduction in parasite viability measured after 72 hrs by MTT assay. It counts as functional, organism-based. Conditions: MHOM/IT/2006/ISS2848, 72 h.
The subject of series [3] is Leishmania braziliensis. The series can be described thus: Antileishmanial activity against intracellular amastigote stage of Leishmania braziliensis MHOM/IT/2006/ISS2848 assessed as reduction in parasite viability measured after 72 hrs by MTT assay. As to conditions: MHOM/IT/2006/ISS2848, 72 h. The series is classed as functional, organism-based.
Series [4] has as its system Leishmania tropica. Description: Antileishmanial activity against promastigote stage of Leishmania tropica MHOM/IT/2012/ISS3130 assessed as reduction in parasite viability measured after 72 hrs by MTT assay. It counts as functional, organism-based. As to conditions: MHOM/IT/2012/ISS3130, 72 h.
Series [5] concerns Leishmania tropica. Description: Antileishmanial activity against intracellular amastigote stage of Leishmania tropica MHOM/IT/2012/ISS3130 assessed as reduction in parasite viability measured after 72 hrs by MTT assay. It counts as functional, organism-based. Conditions: MHOM/IT/2012/ISS3130, 72 h.
For the next series, the system named is THP-1. Description: Cytotoxicity against human THP1 cells assessed as cell viability measured after 72 hrs by MTT assay. The series is classed as cell-based. Conditions: THP-1, 72 h.
For the next series, the system named is BMDM. The series can be described thus: Cytotoxicity against mouse BMDM cells assessed as cell viability measured after 72 hrs by MTT assay. It counts as cell-based.
A further series has as its system HMEC-1. Description: Cytotoxicity against human HMEC1 cells assessed as cell viability measured after 72 hrs by MTT assay. It counts as cell-based. Conditions: HMEC-1, 72 h.
The subject of a further series is CFPAC-1. The series can be described thus: Cytotoxicity against human CFPAC-1 cells assessed as cell viability measured after 72 hrs by MTT assay. The series is classed as cell-based. As to conditions: CFPAC-1, 72 h.
The test system of series [6] is Leishmania infantum. Description: Antileishmanial activity against intracellular amastigote stage of Leishmania infantum MHOM/TN/80/IPT1 assessed as reduction in parasite viability measured after 72 hrs by MTT assay. The series is classed as functional, organism-based. Conditions: MHOM/TN/80/IPT1, 72 h.
Series [7] in a line: Selectivity index, ratio of IC50 for human THP1 cells to IC50 for intracellular amastigote stage of Leishmania infantum. The series is classed as toxicity, cell-based. Conditions: read-out: Ratio IC50.
Series [8] can be described thus: Selectivity index, ratio of IC50 for mouse BMDM cells to IC50 for intracellular amastigote stage of Leishmania infantum. It counts as toxicity, cell-based. As to conditions: read-out: Ratio IC50.
Series [9] in a line: Selectivity index, ratio of IC50 for human HMEC1 cells to IC50 for intracellular amastigote stage of Leishmania infantum. As to conditions: read-out: Ratio IC50. The series is classed as toxicity, cell-based.
The nature of series [10]: Selectivity index, ratio of IC50 for human CFPAC-1 cells to IC50 for intracellular amastigote stage of Leishmania infantum. It counts as toxicity, cell-based. As to conditions: read-out: Ratio IC50.
The test system of series [11] is Leishmania infantum. Description: Antileishmanial activity against promastigote stage of Leishmania infantum LEM3049 isolate measured after 72 hrs by MTT assay. It counts as functional, organism-based.
The subject of series [12] is Leishmania infantum. Description: Antileishmanial activity against antimony resistant promastigote stage of Leishmania infantum LEM3323 isolate measured after 72 hrs by MTT assay. It counts as functional, organism-based.
The subject of series [13] is Leishmania infantum. The series can be described thus: Antileishmanial activity against miltefosine resistant promastigote stage of Leishmania infantum LEM5159 isolate measured after 72 hrs by MTT assay. The series is classed as functional, organism-based.
Series [14] deals with Leishmania infantum. Description: Antileishmanial activity against miltefosine and paromomycin resistant promastigote stage of Leishmania infantum LEM2126 isolate measured after 72 hrs by MTT assay. It counts as functional, organism-based.
Series [15] relates to Leishmania infantum. The series can be described thus: Antileishmanial activity against intracellular amastigote stage of Leishmania infantum LEM3049 isolate measured after 72 hrs by MTT assay. The series is classed as functional, organism-based.
For series [16], the system named is Leishmania infantum. The series can be described thus: Antileishmanial activity against antimony resistant intracellular amastigote stage of Leishmania infantum LEM3323 isolate measured after 72 hrs by MTT assay. It counts as functional, organism-based.
Series [17] concerns Leishmania infantum. The series can be described thus: Antileishmanial activity against miltefosine resistant intracellular amastigote stage of Leishmania infantum LEM5159 isolate measured after 72 hrs by MTT assay. It counts as functional, organism-based.
The test system of series [18] is Leishmania infantum. Description: Antileishmanial activity against miltefosine and paromomycin resistant intracellular amastigote stage of Leishmania infantum LEM2126 isolate measured after 72 hrs by MTT assay. It counts as functional, organism-based.
The nature of series [19]: Selectivity index, ratio of IC50 for human THP1 cells to IC50 for intracellular amastigote stage of Leishmania infantum LEM3049 isolate. Conditions: read-out: Ratio IC50. The series is classed as toxicity, cell-based.
The nature of series [20]: Selectivity index, ratio of IC50 for human THP1 cells to IC50 for antimony resistant intracellular amastigote stage of Leishmania infantum LEM3323 isolate. The series is classed as toxicity, cell-based. Conditions: read-out: Ratio IC50.
A short description of series [21]: Selectivity index, ratio of IC50 for human THP1 cells to IC50 for miltefosine resistant intracellular amastigote stage of Leishmania infantum LEM5159 isolate. It counts as toxicity, cell-based. Conditions: read-out: Ratio IC50.
A short description of series [22]: Selectivity index, ratio of IC50 for human THP1 cells to IC50 for miltefosine and paromomycin resistant intracellular amastigote stage of Leishmania infantum LEM2126 isolate. It counts as toxicity, cell-based. As to conditions: read-out: Ratio IC50.

Consider `CCCCCCCCCCCCCCCCOP(=O)([O-])OCC[N+](C)(C)C` [MILTEFOSINE], for which the IC50 is 1430 nM with Leishmania infantum [1]; 7590 nM with Leishmania braziliensis [2]; 890 nM in the series on Leishmania braziliensis [3]; 10400 nM in the series with Leishmania tropica [4]; 1150 nM in the series on Leishmania tropica [5].

In the case of `C[C@@H]1[C@H](O)[C@@H](C)/C=C/C=C/C=C/C=C/C=C/C=C/C=C/[C@H](O[C@@H]2O[C@H](C)[C@@H](O)[C@H](N)[C@@H]2O)C[C@@H]2O[C@](O)(C[C@@H](O)C[C@@H](O)[C@H](O)CC[C@@H](O)C[C@@H](O)CC(=O)O[C@H]1C)C[C@H](O)[C@H]2C(=O)O` [AMPHOTERICIN B], the half-maximal inhibitory concentration (IC50) in the series on THP-1 is greater than 10000 nM; in the series with BMDM it was greater than 10000 nM; with HMEC-1 it was greater than 10000 nM; in the series with CFPAC-1 it was greater than 10000 nM; with Leishmania infantum [1], 90 to 150 nM; in the series on Leishmania infantum [6], 180 nM. Further, the IC50 with Leishmania braziliensis [2] turned out to be 183 nM; in the series on Leishmania braziliensis [3], 200 nM; with Leishmania tropica [4] (read-out: IC50) it was 120 nM; with Leishmania tropica [5] it was 160 nM; in the series with Leishmania infantum [11] it was 60 nM; in the series with Leishmania infantum [12], 70 nM. Besides, the IC50 in the series on Leishmania infantum [13] amounted to 50 nM; in the series with Leishmania infantum [14], 100 nM; in the series on Leishmania infantum [15] it was 170 nM; in the series on Leishmania infantum [16], 180 nM; with Leishmania infantum [17], 160 nM; in the series on Leishmania infantum [18] it was 160 nM. For the same molecule, the selectivity ratio in series [7] was greater than 50; in series [8] it was greater than 50; in series [9], greater than 50; in series [10], greater than 50; in [19] it was 164; in series [20], 155. The selectivity ratio in series [21] and in series [22] was 174 each time.

`NC[C@@H]1O[C@H](O[C@H]2[C@@H](O)[C@H](O[C@@H]3[C@@H](O)[C@H](N)C[C@H](N)[C@H]3O[C@H]3O[C@H](CO)[C@@H](O)[C@H](O)[C@H]3N)O[C@@H]2CO)[C@H](N)[C@@H](O)[C@@H]1O` [PAROMOMYCIN]: the IC50 in the series on Leishmania infantum [1] amounted to 427000 nM.
